Measured values taken from patent publication US12168805B2, “Methods and reagents for detecting piperaquine-resistant plasmodium falciparum malaria” (priority 2016, dated 2024).

Legend:
[1] = test system: culture-adapted P. falciparum parasite lines; test: in-vitro Piperaquine Survival Assay (PSA) on culture-adapted parasites; format: cell-based, Plasmodium falciparum; conditions: for in-vitro PSA survival rate (%): 200 nM PPQ for 48 hours
Method: (§1) Cryopreserved parasites were culture-adapted as described.^12 Susceptibility to PPQ was investigated using in-vitro PSA for culture-adapted parasites and ex-vivo PSA for fresh isolates. Survival rates were assessed microscopically and parasites with a survival rate ≥10% were considered PPQ-resistant.^7 msp1, msp2 and glurp polymorphisms were determined to distinguish recrudescent from new infections.^13 Sequencing of the K13-propeller domain was used to screen for ART-resistance.^1 Whole-genome sequencing was performed using Illumina paired-reads sequencing.^1 Data were integrated into the Whole-genome Data Manager (WDM) database^14 and exomes of PPQ-resistant and -sensitive lines were compared after excluding low-coverage positions (i.e., lower than 25% of the genome-wide mean coverage). Genes from highly variable multigene families (var, rifin, phist and stevor) were excluded.^1 CNVs and SNPs were investigated using PlasmoCNVScan and Phen2gen software (see below). 1+PfPM2 and Pfmdr1 copy number was determined by qPCR (see below). Steady-state PfPM2 mRNA levels were measured by RT-qPCR (see below) and PfPM2 protein expression by immunoblotting (see below).
In-vitro susceptibility to PPQ was investigated using the in-vitro or the ex-vivo PSA, which is based on exposing very early ring-stage parasites to 200 nM PPQ for 48 hours, washing away the drug, and assessing parasite growth after a further 24 hours of culture. Survival rates at the 72 hour time point were assessed microscopically by counting the proportion of viable parasites in exposed and non-exposed cultures that developed into second-generation rings or trophozoites with normal morphology. Parasites with a survival rate ≥10% were considered PPQ-resistant.^5

[2] = test system: freshly collected P. falciparum patient isolates; test: ex-vivo Piperaquine Survival Assay (PSA) on fresh isolates; format: cell-based, Plasmodium falciparum
Method: Blood samples were collected into acid-citrate-dextrose tubes (Becton-Dickinson, USA) before treatment and sent to Institut Pasteur in Cambodia within 24 hours. A sub-set of freshly collected samples was used to perform the ex-vivo PSA.^7 All samples were cryopreserved in glycerolyte. Red cell pellets were stored at −20° C. for molecular studies. Blood spots were prepared on day 0 and when applicable on the day of recrudescence.
as §1, with “Genes from highly variable multigene families (var, rifin, phist and stevor) were excluded.^1 CNVs and SNPs were investigated using PlasmoCNVScan and Phen2gen software (see below).” left out, “Steady-state PfPM2 mRNA levels were measured by RT-qPCR (see below) and PfPM2 protein expression by immunoblotting (see below).” left out

`Clc1ccc2c(N3CCN(CCCN4CCN(c5ccnc6cc(Cl)ccc56)CC4)CC3)ccnc2c1` [PPQ, piperaquine] was tested, and the “in-vitro susceptibility to PPQ” value ([1]; 3D7 reference line) was “Sensitive (sensitive if survival rates were <10%)”, the “in-vitro PSA survival rate (%)” value ([1]; 3D7 reference line, survival at 72 hour) was 0.1% and the “In-vitro PSA survival rate, PSA mean value” ([1]; one sequence with DNA expansion type 3) was 39.3%. The “in-vitro susceptibility to PPQ” value ([1]; parasite line 6218) was “Resistant (resistant if survival rates were ≥10%)”, the “in-vitro PSA survival rate (%)” value ([1]; parasite line 6218 (2012, Battambang)) was 40.8% and the “in-vitro susceptibility to PPQ” value ([1]; parasite line 6219) was “Resistant (resistant if survival rates were ≥10%)”. The “in-vitro PSA survival rate (%)” value ([1]; parasite line 6219 (2012, Battambang)) was 58.6%, the “in-vitro susceptibility to PPQ” value ([1]; parasite line 6224) was “Resistant (resistant if survival rates were ≥10%)” and the “in-vitro PSA survival rate (%)” value ([1]; parasite line 6224 (2012, Pursat)) was 61.4%. For the same molecule, the “in-vitro susceptibility to PPQ” value ([1]; parasite line 6229) was “Resistant (resistant if survival rates were ≥10%)”, the “in-vitro PSA survival rate (%)” value ([1]; parasite line 6229 (2012, Battambang)) was 46.6% and the “in-vitro susceptibility to PPQ” value ([1]; parasite line 6237) was “Sensitive (sensitive if survival rates were <10%)”. The “in-vitro PSA survival rate (%)” value ([1]; parasite line 6237 (2012, Kampong Thom)) was 0.8%, the “in-vitro susceptibility to PPQ” value ([1]; parasite line 6246) was “Resistant (resistant if survival rates were ≥10%)” and the “in-vitro PSA survival rate (%)” value ([1]; parasite line 6246 (2012, Kampong Speu)) was 36.9%. The “in-vitro susceptibility to PPQ” value ([1]; parasite line 6261) was “Resistant (resistant if survival rates were ≥10%)”, the “in-vitro PSA survival rate (%)” value ([1]; parasite line 6261 (2012, Pursat)) was 70.5% and the “in-vitro susceptibility to PPQ” value ([1]; parasite line 6267) was “Sensitive (sensitive if survival rates were <10%)”. The “in-vitro PSA survival rate (%)” value ([1]; parasite line 6267 (2012, Kampong Speu)) was 0.5%, the “in-vitro susceptibility to PPQ” value ([1]; parasite line 6272) was “Resistant (resistant if survival rates were ≥10%)” and the “in-vitro PSA survival rate (%)” value ([1]; parasite line 6272 (2012, Battambang)) was 40.0%. For the same molecule, the “in-vitro susceptibility to PPQ” value ([1]; parasite line 6273) was “Sensitive (sensitive if survival rates were <10%)”, the “in-vitro PSA survival rate (%)” value ([1]; parasite line 6273 (2012, Kampong Speu)) was 0.2% and the “in-vitro susceptibility to PPQ” value ([1]; parasite line 6280) was “Resistant (resistant if survival rates were ≥10%)”. The “in-vitro PSA survival rate (%)” value ([1]; parasite line 6280 (2012, Battambang)) was 28.9%, the “in-vitro susceptibility to PPQ” value ([1]; parasite line 6293) was “Resistant (resistant if survival rates were ≥10%)” and the “in-vitro PSA survival rate (%)” value ([1]; parasite line 6293 (2012, Battambang)) was 39.3%. The “in-vitro susceptibility to PPQ” value ([1]; parasite line 6302) was “Resistant (resistant if survival rates were ≥10%)”, the “in-vitro PSA survival rate (%)” value ([1]; parasite line 6302 (2012, Battambang)) was 42.5% and the “in-vitro susceptibility to PPQ” value ([1]; parasite line 6320) was “Resistant (resistant if survival rates were ≥10%)”. For the same molecule, the “in-vitro PSA survival rate (%)” value ([1]; parasite line 6320 (2012, Battambang)) was 62.1%, the “in-vitro susceptibility to PPQ” value ([1]; parasite line 6337) was “Sensitive (sensitive if survival rates were <10%)” and the “in-vitro PSA survival rate (%)” value ([1]; parasite line 6337 (2012, Kampong Speu)) was 0.4%. For the same molecule, the “in-vitro susceptibility to PPQ” value ([1]; parasite line 6341) was “Resistant (resistant if survival rates were ≥10%)”, the “in-vitro PSA survival rate (%)” value ([1]; parasite line 6341 (2012, Pursat)) was 25.8% and the “in-vitro susceptibility to PPQ” value ([1]; parasite line 6349) was “Sensitive (sensitive if survival rates were <10%)”. The “in-vitro PSA survival rate (%)” value ([1]; parasite line 6349 (2012, Kampong Thom)) was 0.6%, the “in-vitro susceptibility to PPQ” value ([1]; parasite line 6365) was “Resistant (resistant if survival rates were ≥10%)” and the “in-vitro PSA survival rate (%)” value ([1]; parasite line 6365 (2012, Battambang)) was 51.8%. For the same molecule, the “in-vitro susceptibility to PPQ” value ([1]; parasite line 6369) was “Sensitive (sensitive if survival rates were <10%)”, the “in-vitro PSA survival rate (%)” value ([1]; parasite line 6369 (2012, Pursat)) was 6.4% and the “in-vitro susceptibility to PPQ” value ([1]; parasite line 6391) was “Resistant (resistant if survival rates were ≥10%)”. For the same molecule, the “in-vitro PSA survival rate (%)” value ([1]; parasite line 6391 (2012, Battambang)) was 39.4%, the “in-vitro susceptibility to PPQ” value ([1]; parasite line 6394) was “Resistant (resistant if survival rates were ≥10%)” and the “in-vitro PSA survival rate (%)” value ([1]; parasite line 6394 (2012, Battambang)) was 56.7%. For the same molecule, the “in-vitro susceptibility to PPQ” value ([1]; parasite line 6395) was “Resistant (resistant if survival rates were ≥10%)”, the “in-vitro PSA survival rate (%)” value ([1]; parasite line 6395 (2012, Battambang)) was 19.2% and the “in-vitro susceptibility to PPQ” value ([1]; parasite line 6403) was “Sensitive (sensitive if survival rates were <10%)”. For the same molecule, the “in-vitro PSA survival rate (%)” value ([1]; parasite line 6403 (2012, Pursat)) was 0.5%, the “in-vitro susceptibility to PPQ” value ([1]; parasite line 6408) was “Resistant (resistant if survival rates were ≥10%)” and the “in-vitro PSA survival rate (%)” value ([1]; parasite line 6408 (2012, Battambang)) was 58.7%. The “in-vitro susceptibility to PPQ” value ([1]; parasite line 6410) was “Sensitive (sensitive if survival rates were <10%)”, the “in-vitro PSA survival rate (%)” value ([1]; parasite line 6410 (2012, Battambang)) was 6.0% and the “in-vitro susceptibility to PPQ” value ([1]; parasite line 6411) was “Resistant (resistant if survival rates were ≥10%)”. The “in-vitro PSA survival rate (%)” value ([1]; parasite line 6411 (2012, Battambang)) was 71.6%, the “in-vitro susceptibility to PPQ” value ([1]; parasite line 6427) was “Resistant (resistant if survival rates were ≥10%)” and the “in-vitro PSA survival rate (%)” value ([1]; parasite line 6427 (2012, Battambang)) was 77.4%. The “in-vitro susceptibility to PPQ” value ([1]; parasite line 6429) was “Resistant (resistant if survival rates were ≥10%)”, the “in-vitro PSA survival rate (%)” value ([1]; parasite line 6429 (2012, Pursat)) was 51.8% and the “in-vitro susceptibility to PPQ” value ([1]; parasite line 6430) was “Resistant (resistant if survival rates were ≥10%)”. For the same molecule, the “in-vitro PSA survival rate (%)” value ([1]; parasite line 6430 (2012, Battambang)) was 51.3%, the “in-vitro susceptibility to PPQ” value ([1]; parasite line 6431) was “Resistant (resistant if survival rates were ≥10%)” and the “in-vitro PSA survival rate (%)” value ([1]; parasite line 6431 (2012, Battambang)) was 61.5%. The “in-vitro susceptibility to PPQ” value ([1]; parasite line 6443) was “Resistant (resistant if survival rates were ≥10%)”, the “in-vitro PSA survival rate (%)” value ([1]; parasite line 6443 (2012, Battambang)) was 49.6% and the “In-vitro PSA survival rate, PSA mean value” ([1]; parasites harboring DNA expansion type 1 (N=13)) was 44.8%. The “In-vitro PSA survival rate, PSA mean value” ([1]; parasites harboring DNA expansion type 2 (N=6)) was 64.9%, the “In-vitro PSA survival rate, PSA mean value” ([1]; parasites harboring DNA expansion type 4 (N=2)) was 16.2% and the “median ex-vivo PSA survival rate” value ([2]; isolates with unamplified (single copy) PfPM2) was 0.004%. For the same molecule, the “median ex-vivo PSA survival rate” value ([2]; isolates with ≥2 PfPM2 copies) was 51.7%.
